The nature of this series: Maximal solubility of the synthetic peptides in water and in DMSO (sheet Peptide_mixes). The settings on record: for max solve (DMSO): in DMSO, number in brackets in the cell; for max solve water: in water, number before the bracket in the cell. Format: physicochemical. The source says: Supplement elife-90674-supp3.xlsx, sheet "Peptide_mixes"

Residues, ends and D or L forms follow the SMILES beside them. No end group written: not given here.

As to DSSPPQW [QW2], the “max solve (DMSO)” value is 10 mg/mL and the max solve water was found to be 5 mg/mL.

Turning to `CSCC[C@H](NC(=O)[C@H](CC(N)=O)NC(=O)[C@@H]1CCCN1C(=O)[C@H](CCSC)NC(=O)[C@@H]1CCC(=O)N1)C(=O)N[C@H](C(=O)N1CCC[C@H]1C(=O)N[C@@H](Cc1ccccc1)C(=O)N[C@@H](Cc1c[nH]cn1)C(N)=O)C(C)C` [PFHa] (HELM PEPTIDE1{[Glp].M.P.N.M.V.P.F.H.[am]}$$$$V2.0), the “max solve (DMSO)” value stood at 10 mg/mL and the max solve water came out at 0 mg/mL.

For SPKPPGLW-NH2 [GLWa5], the “max solve (DMSO)” value is on record as 10 (10) mg/ml and the max solve water is reported as 10 (10) mg/ml.

Turning to `CC(C)C[C@H](NC(=O)[C@H](CCCNC(=N)N)NC(=O)[C@@H](NC(=O)[C@H](CC(N)=O)NC(=O)[C@H](C)NC(=O)[C@H](CCCCN)NC(=O)[C@@H]1CSSC[C@H](NC(=O)[C@H](Cc2c[nH]cn2)NC(=O)CNC(=O)[C@H](CC(N)=O)NC(=O)[C@@H]2CCC(=O)N2)C(=O)N2CCC[C@H]2C(=O)N2CCC[C@H]2C(=O)NCC(=O)N[C@@H](CC(C)C)C(=O)N[C@@H](Cc2c[nH]c3ccccc23)C(=O)N[C@@H](CC(C)C)C(=O)N1)[C@@H](C)O)C(=O)O` [GLWLcc] (HELM PEPTIDE1{[Glp].N.G.H.C.P.P.G.L.W.L.C.K.A.N.T.R.L}$PEPTIDE1,PEPTIDE1,5:R3-12:R3$$$V2.0), the “max solve (DMSO)” value is 5 (5) mg/ml and the max solve water is on record as 5 (5) mg/ml.

As to SPWSYSLRP-NH2 [LRPa2], the “max solve (DMSO)” value is 10 (10) mg/ml and the max solve water is 10 (10) mg/ml.

With `CC(C)C[C@H](NC(=O)[C@@H]1CCC(=O)N1)C(=O)N[C@@H](Cc1ccccc1)C(=O)N[C@@H](CCCNC(=N)N)C(=O)N1CCC[C@H]1C(N)=O` [FRPa4] (HELM PEPTIDE1{[Glp].L.F.R.P.[am]}$$$$V2.0), the “max solve (DMSO)” value is 10 (10) mg/ml and the max solve water is 10 (10) mg/ml.

Take LPPRFGGQI-NH2 [QIa]: the “max solve (DMSO)” value amounted to 10 mg/mL and the max solve water is 5 mg/mL.

For the molecule `CC(C)C[C@H](NC(=O)[C@H](Cc1ccccc1)NC(=O)[C@H](C)NC(=O)[C@H](CC(=O)O)NC(=O)[C@@H]1CCC(=O)N1)C(=O)N1CCC[C@H]1C(=O)N[C@@H](CCCCN)C(=O)N1CCC[C@H]1C(=O)N[C@@H](CCCNC(=N)N)C(=O)N1CCC[C@H]1C(N)=O` [RPa1] (HELM PEPTIDE1{[Glp].D.A.F.L.P.K.P.R.P.[am]}$$$$V2.0), the “max solve (DMSO)” value is listed as 10 (10) mg/ml and the max solve water is reported as 10 (10) mg/ml.

For SPPQWKLDSSPPQW [QW3], the “max solve (DMSO)” value came to 10 mg/mL and the max solve water is 5 mg/mL.

With `CC[C@H](C)[C@H](NC(=O)[C@H](CC[S+](C)[O-])NC(=O)[C@@H]1CCCN1C(=O)[C@@H]1CCCN1C(=O)CN)C(=O)N[C@@H](CCCCN)C(=O)N[C@H](C(=O)N1CCC[C@H]1C(=O)N[C@H](C(=O)N[C@@H](CCCNC(=N)N)C(=O)N[C@@H](Cc1c[nH]cn1)C(N)=O)C(C)C)[C@@H](C)CC` (stereo partly drawn) [RHa2] (HELM PEPTIDE1{G.P.P.[CS(=O)CC[C@H](N[*:1])C(=O)[*:2]].I.K.I.P.V.R.H.[am]}$$$$V2.0), the “max solve (DMSO)” value is 10 mg/mL and the max solve water was 5 mg/mL.

For GPPGLW-NH2 [GLWa3], the “max solve (DMSO)” value came to 10 mg/mL and the max solve water is 5 mg/mL.

For WPPRP-NH2 [FRPa1], the “max solve (DMSO)” value is on record as 10 (10) mg/ml and the max solve water is listed as 10 (10) mg/ml.

With QPGNMKVWSDPF [PNX12], the “max solve (DMSO)” value is 5 mg/mL and the max solve water is 0 mg/mL.

NPPQPPFRIPI-NH2 [IPIa]: the “max solve (DMSO)” value was 10 mg/mL and the max solve water was determined as 5 mg/mL.

TPPSNI-NH2 [SNIa]: the “max solve (DMSO)” value turned out to be 5 mg/mL and the max solve water is 2 mg/mL.

On to `CC(C)C[C@H](NC(=O)CNC(=O)[C@@H]1CCCN1C(=O)[C@H](C)NC(=O)CNC(=O)[C@H](C)NC(=O)[C@@H]1CCC(=O)N1)C(=O)N[C@@H](Cc1c[nH]c2ccccc12)C(N)=O` [GLWa1] (HELM PEPTIDE1{[Glp].A.G.A.P.G.L.W.[am]}$$$$V2.0), for which the “max solve (DMSO)” value was 10 mg/mL and the max solve water stood at 5 mg/mL.

Consider EIQPGNMKVWSDPF [PNX14], for which the “max solve (DMSO)” value was 10 mg/mL and the max solve water turned out to be 5 mg/mL.

As to RSNRVVIHTGANPTMAPLRIPF-NH2 [IPFa], the “max solve (DMSO)” value came out at 10 mg/mL and the max solve water stood at 5 mg/mL.

For `N=C(N)NCCC[C@H](NC(=O)[C@@H]1CCCN1C(=O)CN)C(=O)NCC(N)=O` [PRGa] (H-GPRG-NH2), the “max solve (DMSO)” value is 10 (10) mg/ml and the max solve water was 10 (10) mg/ml.

Consider `CSCC[C@H](NC(=O)[C@H](C)NC(=O)[C@@H]1CCC(=O)N1)C(=O)N[C@@H](CCC(N)=O)C(=O)N[C@@H](Cc1c[nH]c2ccccc12)C(=O)NCC(=O)N[C@@H](Cc1c[nH]cn1)C(=O)N[C@@H](CCCCN)C(=O)NCC(=O)N[C@@H](Cc1c[nH]c2ccccc12)C(=O)N[C@@H](C)C(=O)O` [GWA1] (HELM PEPTIDE1{[Glp].A.M.Q.W.G.H.K.G.W.A}$$$$V2.0), for which the “max solve (DMSO)” value came to 10 mg/mL and the max solve water came to 0 mg/mL.

Consider SPWSCSLRP-NH2 [LRPa1], for which the “max solve (DMSO)” value was 10 (10) mg/ml and the max solve water is 10 (10) mg/ml.

Consider `CC(C)C[C@H](NC(=O)CNC(=O)CNC(=O)[C@@H]1CCC(=O)N1)C(=O)N[C@@H](CCCNC(=N)N)C(=O)N[C@@H](Cc1c[nH]c2ccccc12)C(N)=O` [LRWa2] (HELM PEPTIDE1{[Glp].G.G.L.R.W.[am]}$$$$V2.0), for which the “max solve (DMSO)” value was 10 mg/mL and the max solve water is 5 mg/mL.

For the molecule TPPQW [QW1], the “max solve (DMSO)” value came to 10 mg/mL and the max solve water came out at 2 mg/mL.

MPEQDANPQTRFD-NH2 [RFa2]: the “max solve (DMSO)” value was 10 mg/mL and the max solve water was 5 mg/mL.

Regarding `N=C(N)NCCC[C@H](NC(=O)CNC(=O)[C@H](CCC(N)=O)NC(=O)[C@H](CC(=O)O)NC(=O)[C@H](CCC(=O)O)NC(=O)[C@H](CCCNC(=N)N)NC(=O)CNC(=O)[C@H](Cc1ccccc1)NC(=O)[C@H](CCCNC(=N)N)NC(=O)CNC(=O)[C@@H]1CCC(=O)N1)C(=O)N[C@@H](Cc1ccccc1)C(N)=O` [RFa1] (HELM PEPTIDE1{[Glp].G.R.F.G.R.E.D.Q.G.R.F.[am]}$$$$V2.0), the “max solve (DMSO)” value stood at 10 mg/mL and the max solve water came to 5 mg/mL.

Consider `CC(C)C[C@H](NC(=O)[C@H](CCCNC(=N)N)NC(=O)[C@@H](NC(=O)[C@H](CC(N)=O)NC(=O)[C@H](C)NC(=O)[C@H](CCCCN)NC(=O)[C@H](CS)NC(=O)[C@H](CC(C)C)NC(=O)[C@H](Cc1c[nH]c2ccccc12)NC(=O)[C@H](CC(C)C)NC(=O)CNC(=O)[C@@H]1CCCN1C(=O)[C@@H]1CCCN1C(=O)[C@H](CS)NC(=O)[C@H](Cc1c[nH]cn1)NC(=O)CNC(=O)[C@H](CC(N)=O)NC(=O)[C@@H]1CCC(=O)N1)[C@@H](C)O)C(=O)O` [GLWL] (HELM PEPTIDE1{[Glp].N.G.H.C.P.P.G.L.W.L.C.K.A.N.T.R.L}$$$$V2.0), for which the “max solve (DMSO)” value is 10 mg/mL and the max solve water was 5 mg/mL.

For the molecule IPPQGFRFSQW-NH2 [QWa], the “max solve (DMSO)” value is 10 mg/mL and the max solve water worked out at 0 mg/mL.

With YPPFLELGQPSYFHIR-NH2 [HIRa2], the “max solve (DMSO)” value amounted to 10 mg/mL and the max solve water stood at 5 mg/mL.

APRGGRSLLDLLAAPRG-NH2 [PRGa1]: the “max solve (DMSO)” value is on record as 10 (10) mg/ml and the max solve water was 10 (10) mg/ml.

As for GPPQGLRW-NH2 [LRWa3], the “max solve (DMSO)” value was 5 (5) mg/ml and the max solve water was 5 (5) mg/ml.

Turning to `CSCC[C@H](NC(=O)[C@H](CC(C)C)NC(=O)CNC(=O)[C@@H]1CCC(=O)N1)C(=O)N[C@@H](Cc1ccccc1)C(=O)N[C@@H](CCCNC(=N)N)C(=O)N1CCC[C@H]1C(N)=O` [FRPa2] (HELM PEPTIDE1{[Glp].G.L.M.F.R.P.[am]}$$$$V2.0), the “max solve (DMSO)” value was 10 mg/mL and the max solve water came out at 5 mg/mL.

For the molecule `CC[C@H](C)[C@H](NC(=O)[C@H](CC(C)C)NC(=O)[C@@H]1CCC(=O)N1)C(=O)N[C@@H](Cc1ccccc1)C(=O)N[C@@H](CCCNC(=N)N)C(=O)N1CCC[C@H]1C(N)=O` [FRPa] (HELM PEPTIDE1{[Glp].L.I.F.R.P.[am]}$$$$V2.0), the “max solve (DMSO)” value was 10 mg/mL and the max solve water stood at 5 mg/mL.

On to `CC(C)C[C@H](NC(=O)CNC(=O)[C@@H]1CCCN1C(=O)[C@@H]1CCCN1C(=O)CNC(=O)[C@H](C)NC(=O)[C@@H]1CCC(=O)N1)C(=O)N[C@@H](Cc1c[nH]c2ccccc12)C(N)=O` [GLWa2] (HELM PEPTIDE1{[Glp].A.G.P.P.G.L.W.[am]}$$$$V2.0), for which the “max solve (DMSO)” value is listed as 10 (10) mg/ml and the max solve water is reported as 10 (10) mg/ml.

Turning to `CC(C)[C@H](NC(=O)[C@H](CCCNC(=N)N)NC(=O)[C@H](Cc1ccc(O)cc1)NC(=O)[C@@H](N)Cc1ccccc1)C(N)=O` [FYRVa] (H-FYRV-NH2), the “max solve (DMSO)” value was found to be 10 mg/mL and the max solve water came out at 2 mg/mL.

As for `CC(C)C[C@H](NC(=O)[C@@H](N)Cc1ccccc1)C(=O)N[C@@H](CCCNC(=N)N)C(=O)N[C@@H](CC(N)=O)C(N)=O` [FLRNa] (H-FLRN-NH2), the “max solve (DMSO)” value is on record as 10 (10) mg/ml and the max solve water is recorded as 10 (10) mg/ml.

Turning to `CC[C@H](C)[C@H](NC(=O)[C@H](Cc1c[nH]cn1)NC(=O)[C@H](Cc1ccccc1)NC(=O)[C@H](Cc1ccccc1)NC(=O)[C@H](CO)NC(=O)[C@@H]1CCCN1C(=O)[C@H](CCC(=O)O)NC(=O)CNC(=O)[C@H](CC(C)C)NC(=O)[C@H](CC(=O)O)NC(=O)[C@H](CC(C)C)NC(=O)[C@H](Cc1ccc(O)cc1)NC(=O)[C@@H]1CCCN1C(=O)[C@@H]1CCCN1C(=O)[C@@H]1CCC(=O)N1)C(=O)N[C@@H](CCCNC(=N)N)C(N)=O` [HIRa1] (HELM PEPTIDE1{[Glp].P.P.Y.L.D.L.G.E.P.S.F.F.H.I.R.[am]}$$$$V2.0), the “max solve (DMSO)” value is reported as 10 (10) mg/ml and the max solve water was 10 (10) mg/ml.

For the origin of these results see PMC11087051, “Large-scale deorphanization of Nematostella vectensis neuropeptide G protein-coupled receptors supports the independent expansion of bilaterian and cnidarian peptidergic systems” (eLife, 2024).
